Test results published in patent US20100168102A9, “Amide Derivatives as Kinase Inhibitors” (Devgen NV, priority 2005, published 2010).
Counter-ions that a name gives are not always drawn. Like-named read-outs stand apart in the source and are kept apart here.

Columns and labels:
PKC epsilon = biological target: T1, PKC epsilon (Homo sapiens, UniProt Q02156); assay: Biochemical assay for PKC epsilon (fluorescence polarization, Protein Kinase C Assay Kit, Red); details: read-out: IC50 μM PKCε
T1 construct: purchased Invitrogen P2282
T1 sequence (Q02156 1-737): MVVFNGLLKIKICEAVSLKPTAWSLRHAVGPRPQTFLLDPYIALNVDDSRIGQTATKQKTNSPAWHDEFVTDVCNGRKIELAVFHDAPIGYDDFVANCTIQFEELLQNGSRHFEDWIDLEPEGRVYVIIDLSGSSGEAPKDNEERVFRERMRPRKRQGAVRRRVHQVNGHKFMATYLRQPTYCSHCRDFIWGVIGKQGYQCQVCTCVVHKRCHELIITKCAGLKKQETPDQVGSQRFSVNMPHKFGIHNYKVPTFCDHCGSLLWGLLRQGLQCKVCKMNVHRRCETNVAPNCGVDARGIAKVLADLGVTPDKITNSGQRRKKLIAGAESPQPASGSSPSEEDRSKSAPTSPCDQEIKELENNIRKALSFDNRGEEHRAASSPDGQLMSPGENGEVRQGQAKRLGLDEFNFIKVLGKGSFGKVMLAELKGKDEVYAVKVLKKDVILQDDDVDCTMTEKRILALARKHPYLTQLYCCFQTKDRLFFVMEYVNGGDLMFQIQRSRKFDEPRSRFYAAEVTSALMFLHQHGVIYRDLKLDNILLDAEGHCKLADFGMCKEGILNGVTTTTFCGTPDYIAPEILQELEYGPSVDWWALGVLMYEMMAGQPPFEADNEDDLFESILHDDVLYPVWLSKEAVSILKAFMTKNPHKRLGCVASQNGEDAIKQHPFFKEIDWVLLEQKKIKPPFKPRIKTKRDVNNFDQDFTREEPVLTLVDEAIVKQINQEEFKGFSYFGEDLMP
Method in brief: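 PKC epsilon at 10 ng/ml final was preincubated 30 min at room temperature with compound in HEPES pH 7.4 with DTT and Triton X-100. ATP/protein substrate was then added in buffer with MgCl2 and CaCl2 for 80 min. The reaction was stopped with EDTA, phosphorylation was detected by fluorescence polarization with rhodamine tracer and anti-phosphoserine antibody, and IC50 values came from curve fits.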

human ROCKα/ROCKII mix = biological target: T2, human ROCKα/ROCKII mix (Homo sapiens, UniProt O75116); assay: Biochemical assay for ROCK (fluorescence polarization, ROCK IMAP Kit)
T2 construct: purchased Upstate Biotechnology 14-451
T2 sequence (O75116 11-552 limits assumed): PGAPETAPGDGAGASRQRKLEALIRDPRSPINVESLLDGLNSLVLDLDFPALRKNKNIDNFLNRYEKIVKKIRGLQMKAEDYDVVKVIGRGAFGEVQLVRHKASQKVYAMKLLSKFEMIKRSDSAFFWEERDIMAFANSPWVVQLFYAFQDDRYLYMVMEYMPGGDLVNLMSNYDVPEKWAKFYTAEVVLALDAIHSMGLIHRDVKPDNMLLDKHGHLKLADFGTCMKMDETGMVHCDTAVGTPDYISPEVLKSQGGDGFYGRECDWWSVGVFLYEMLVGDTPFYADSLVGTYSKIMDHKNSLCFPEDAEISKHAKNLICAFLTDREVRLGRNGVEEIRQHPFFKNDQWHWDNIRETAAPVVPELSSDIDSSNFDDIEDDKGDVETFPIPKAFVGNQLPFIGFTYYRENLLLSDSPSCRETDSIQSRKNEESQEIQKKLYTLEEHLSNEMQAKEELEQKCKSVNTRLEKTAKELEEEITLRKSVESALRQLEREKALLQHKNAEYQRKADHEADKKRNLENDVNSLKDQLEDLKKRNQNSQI

[1] = Table 2, compounds of Formula XIII
[2] = compounds of Formula XIV, Table 3

IC50 (PKC epsilon; [1]) [µM]	IC50 (human ROCKα/ROCKII mix; [1]) [µM]	IC50 (PKC epsilon; [2]) [µM]	IC50 (human ROCKα/ROCKII mix; [2]) [µM]	SMILES
0.5 to 5	0.05 to 0.5			NC(CNC(=O)Cc1cccs1)c1ccc(C(=O)Nc2ccncc2)cc1 (stereo not shown) [Compound 153, 4-[1-amino-2-(2-thiophen-2-yl-acetylamino)-ethyl]-N-pyridin-4-yl-benzamide]
5 to 50	0.05 to 0.5			NC(CNC(=O)Cc1csc(-c2ccccc2)n1)c1ccc(C(=O)Nc2ccncc2)cc1 (stereo not shown) [Compound 154, 4-{1-Amino-2-[2-(2-phenyl-thiazol-4-yl)-acetylamino]-ethyl}-N-pyridin-4-yl-benzamide]
0.5 to 5	0.5 to 5			NC(CNC(=O)Cc1csc(Nc2ccccc2)n1)c1ccc(C(=O)Nc2ccncc2)cc1 (stereo not shown) [Compound 155, 4-{1-Amino-2-[2-(2-phenylamino-thiazol-4-yl)-acetylamino]-ethyl}-N-pyridin-4-yl-benzamide]
0.05 to 0.5	0.05 to 0.5			NC(CNC(=O)COc1ccccc1)c1ccc(C(=O)Nc2ccncc2)cc1 (stereo not shown) [Compound 156, 4-[1-Amino-2-(2-phenoxy-acetylamino)-ethyl]-N-pyridin-4-yl-benzamide]
0.05 to 0.5	0.05 to 0.5			NC(CNC(=O)COc1ccc(F)cc1)c1ccc(C(=O)Nc2ccncc2)cc1 (stereo not shown) [Compound 157, 4-{1-Amino-2-[2-(4-fluoro-phenoxy)-acetylamino]-ethyl}-N-pyridin-4-yl-benzamide]
0.5 to 5	0.05 to 0.5			CCC(Oc1ccccc1)C(=O)NCC(N)c1ccc(C(=O)Nc2ccncc2)cc1 (stereo not shown) [Compound 158, 4-[1-Amino-2-(2-phenoxy-butyrylamino)-ethyl]-N-pyridin-4-yl-benzamide]
0.5 to 5	0.05 to 0.5			Cc1cc(Cl)ccc1OC(C)C(=O)NCC(N)c1ccc(C(=O)Nc2ccncc2)cc1 (stereo not shown) [Compound 159, 4-{1-Amino-2-[2-(4-chloro-2-methyl-phenoxy)-propionylamino]-ethyl}-N-pyridin-4-yl-benzamide]
5 to 50	0.05 to 0.5			NC(CNC(=O)CC(c1ccccc1)c1ccccc1)c1ccc(C(=O)Nc2ccncc2)cc1 (stereo not shown) [Compound 160, 4-[1-Amino-2-(3,3-diphenyl-propionylamino)-ethyl]-N-pyridin-4-yl-benzamide]
0.5 to 5	0.05 to 0.5			NC(CNC(=O)C1Cc2ccccc21)c1ccc(C(=O)Nc2ccncc2)cc1 (stereo not shown) [Compound 161, Bicyclo[4.2.0]octa-1,3,5-triene-7-carboxylic acid {2-amino-2-[4-(pyridin-4-ylcarbamoyl)-phenyl]-ethyl}-amide]
0.5 to 5	0.05 to 0.5			NC(CNC(=O)CCc1ccccc1)c1ccc(C(=O)Nc2ccncc2)cc1 (stereo not shown) [Compound 162]
0.05 to 0.5	0.05 to 0.5			NC(CNC(=O)CCc1ccc(F)cc1)c1ccc(C(=O)Nc2ccncc2)cc1 (stereo not shown) [Compound 163, 4-{1-amino-2-[3-(4-fluoro-phenyl)-propionylamino]-ethyl}-N-pyridin-4-yl-benzamide]
0.5 to 5	0.5 to 5			NC(CNC(=O)C1CCc2ccccc2C1)c1ccc(C(=O)Nc2ccncc2)cc1 (stereo not shown) [Compound 164, 1,2,3,4-Tetrahydro-naphtalene-2-carboxylic acid {2-amino-2-[4-(pyridin-4-ylcarbamoyl)-phenyl]-ethyl}-amide]
0.5 to 5	0.5 to 5			CC1=C(C(=O)NCC(N)c2ccc(C(=O)Nc3ccncc3)cc2)Cc2ccccc21 (stereo not shown) [Compound 165, 3-Methyl-1H-indene-2-carboxylic acid {2-amino-2-[4-(pyridin-4-ylcarbamoyl)-phenyl]-ethyl}-amide]
5 to 50	0.5 to 5			NC(CNC(=O)CCc1cccnc1)c1ccc(C(=O)Nc2ccncc2)cc1 (stereo not shown) [Compound 166, 4-[1-Amino-2-(3-pyridin-3-yl-propionylamino)-ethyl]-N-pyridin-4-yl-benzamide]
0.05 to 0.5	0.05 to 0.5			NC(CNC(=O)Cc1ccc(F)c(F)c1)c1ccc(C(=O)Nc2ccncc2)cc1 (stereo not shown) [Compound 167, 4-{1-Amino-2-[2-(3,4-difluoro-phenyl)-acetylamino]-ethyl}-N-pyridin-4-yl-benzamide dihydrochloride]
		0.5 to 5	0.05 to 0.5	CCNC(=O)CC(N)c1ccc(C(=O)Nc2ccncc2)cc1 (stereo not shown) [Compound 169]
		0.5 to 5	0.05 to 0.5	CC(C)C(C)NC(=O)CC(N)c1ccc(C(=O)Nc2ccncc2)cc1 (stereo not shown) [Compound 170, 4-[1-amino-2-(1,2-dimethyl-propylcarbamoyl)-ethyl]-N-pyridin-4-yl-benzamide]
		0.5 to 5	0.05 to 0.5	CN(C)CCNC(=O)CC(N)c1ccc(C(=O)Nc2ccncc2)cc1 (stereo not shown) [Compound 174, 4-[1-amino-2-(2-dimethylamino-ethylcarbamoyl)-ethyl]-N-pyridin-4-yl-benzamide]
		0.5 to 5	0.05 to 0.5	CC(=O)NCCNC(=O)CC(N)c1ccc(C(=O)Nc2ccncc2)cc1 (stereo not shown) [Compound 175, 4-[2-(2-acetylamino-ethylcaramoyl)-1-amino-ethyl]-N-pyridin-4-yl-benzamide]
		0.5 to 5	0.05 to 0.5	CS(=O)(=O)NCCNC(=O)CC(N)c1ccc(C(=O)Nc2ccncc2)cc1 (stereo not shown) [Compound 176, 4-[1-amino-2-(2-methanesulfonylamino-ethylcarbamoyl)-ethyl]-N-pyridin-4-yl-benzamide]
		5 to 50	0.5 to 5	N#CCCN(C(=O)CC(N)c1ccc(C(=O)Nc2ccncc2)cc1)C1CC1 (stereo not shown) [Compound 178, 4-{1-amino-2-[(2-cyano-ethyl)-cyclopropyl-carbamoyl]-ethyl}-N-pyridin-4-yl-benzamide]
		0.5 to 5	0.05 to 0.5	CN(CCO)C(=O)CC(N)c1ccc(C(=O)Nc2ccncc2)cc1 (stereo not shown) [Compound 179, 4-{1-amino-2-[(2-hydroxy-ethyl)-methyl-carbamoyl]-ethyl}-N-pyridin-4-yl-benzamide]
		0.5 to 5	0.05 to 0.5	COCCNC(=O)CC(N)c1ccc(C(=O)Nc2ccncc2)cc1 (stereo not shown) [Compound 180, 4-[1-amino-2-(2-methoxy-ethylcarbamoyl)-ethyl]-N-pyridin-4-yl-benzamide]
		0.5 to 5	0.05 to 0.5	COCC(C)NC(=O)CC(N)c1ccc(C(=O)Nc2ccncc2)cc1 (stereo not shown) [Compound 181, 4-[1-amino-2-(2-methoxy-1-methyl-ethylcarbamoyl)-ethyl]-N-pyridin-4-yl-benzamide]
		0.5 to 5	0.05 to 0.5	COC(=O)C(C)NC(=O)CC(N)c1ccc(C(=O)Nc2ccncc2)cc1 (stereo not shown) [Compound 182]
		0.5 to 5	0.05 to 0.5	CONC(=O)CC(N)c1ccc(C(=O)Nc2ccncc2)cc1 (stereo not shown) [Compound 183, 4-(1-amino-2-methoxycarbamoyl-ethyl)-N-pyridin-4-yl-benzamide]
		0.5 to 5	0.05 to 0.5	NC(CC(=O)NCC1CCCO1)c1ccc(C(=O)Nc2ccncc2)cc1 (stereo not shown) [Compound 184, 4-{1-amino-2-[(tetrahydro-furan-2-ylmethyl)-carbamoyl]-ethyl}-N-pyridin-4-yl-benzamide]
		0.5 to 5	0.05 to 0.5	NC(CC(=O)NC1CCN(Cc2ccccc2)CC1)c1ccc(C(=O)Nc2ccncc2)cc1 (stereo not shown) [Compound 200, 4-[1-amino-2-(1-benzyl-piperidin-4-ylcarbamoyl)-ethyl]-N-pyridin-4-yl-benzamide]
		0.5 to 5	0.05 to 0.5	Cc1cccc(CN2CCC(NC(=O)CC(N)c3ccc(C(=O)Nc4ccncc4)cc3)CC2)c1 (stereo not shown) [Compound 201, 4-{1-amino-2-[1-(3-methyl-benzyl)-piperidin-4-ylcarbamoyl]-ethyl}-N-pyridin-4-yl-benzamide]
